Measurements from patent publication US20250255883A1, “Compositions and Methods for Treating Aging Hair” (CHL Industries, LLC, priority 2021, published 2025).

System: Normal human keratinocytes (HEKa)
Test: Real-time quantitative PCR gene expression in normal human keratinocytes treated for 24 hours
Format: cell-based
Settings: vs. water-treated control

Q: What does the source list for “diethyl ester of copper (II) chlorin e6 [DECCE6]”?
A: Fold Up- or Down-Regulation 18S (gene 18S (housekeeping), 20 ug/mL): 1.2 Fold; Fold Up- or Down-Regulation AQP3 (gene AQP3, 20 ug/mL): 5.5 Fold; Fold Up- or Down-Regulation AREL1 (gene AREL1, 20 ug/mL): −5.8 Fold; Fold Up- or Down-Regulation ARRDC3 (gene ARRDC3, 20 ug/mL): 1.9 Fold; Fold Up- or Down-Regulation BAMBI (gene BAMBI, 20 ug/mL): 1.3 Fold; Fold Up- or Down-Regulation CCL20 (gene CCL20, 20 ug/mL): 2.6 Fold; Fold Up- or Down-Regulation CDKN1A (gene CDKN1A, 20 ug/mL): −1.4 Fold; Fold Up- or Down-Regulation CSF1 (gene CSF1, 20 ug/mL): 1.1 Fold; Fold Up- or Down-Regulation CSF2 (gene CSF2, 20 ug/mL): −1.1 Fold; Fold Up- or Down-Regulation CXCL1 (gene CXCL1, 20 ug/mL): 2.7 Fold; Fold Up- or Down-Regulation CXCL2 (gene CXCL2, 20 ug/mL): 3.0 Fold; Fold Up- or Down-Regulation CXCL3 (gene CXCL3, 20 ug/mL): −1.1 Fold; Fold Up- or Down-Regulation CXCL8 (gene CXCL8, 20 ug/mL): 1.3 Fold; Fold Up- or Down-Regulation CXCL10 (gene CXCL10, 20 ug/mL): 7.6 Fold; Fold Up- or Down-Regulation CYB561 (gene CYB561, 20 ug/mL): −1.2 Fold; Fold Up- or Down-Regulation CYP1A1 (gene CYP1A1, 20 ug/mL): 2.8 Fold; Fold Up- or Down-Regulation DDX5 (gene DDX5, 20 ug/mL): 2.1 Fold; Fold Up- or Down-Regulation DEFB1 (gene DEFB1, 20 ug/mL): 3.4 Fold; Fold Up- or Down-Regulation EPGN (gene EPGN, 20 ug/mL): 1.2 Fold; Fold Up- or Down-Regulation FGF2 (gene FGF2, 20 ug/mL): −2.1 Fold; Fold Up- or Down-Regulation FOS (gene FOS, 20 ug/mL): 15.9 Fold; Fold Up- or Down-Regulation G2E3 (gene G2E3, 20 ug/mL): 4.1 Fold; Fold Up- or Down-Regulation GDF15 (gene GDF15, 20 ug/mL): 1.7 Fold; Fold Up- or Down-Regulation GPADH (gene GPADH (housekeeping), 20 ug/mL): −1.9 Fold; Fold Up- or Down-Regulation GPX2 (gene GPX2, 20 ug/mL): 5.5 Fold; Fold Up- or Down-Regulation HBEGF (gene HBEGF, 20 ug/mL): 3.1 Fold; Fold Up- or Down-Regulation HECTD1 (gene HECTD1, 20 ug/mL): 1.2 Fold; Fold Up- or Down-Regulation HERC1 (gene HERC1, 20 ug/mL): 3.5 Fold; Fold Up- or Down-Regulation HIF1AN (gene HIF1AN, 20 ug/mL): −1.6 Fold; Fold Up- or Down-Regulation HPRT1 (gene HPRT1 (housekeeping), 20 ug/mL): 1.6 Fold; Fold Up- or Down-Regulation HSP90B1 (gene HSP90B1, 20 ug/mL): 1.2 Fold; Fold Up- or Down-Regulation IFI44L (gene IFI44L, 20 ug/mL): 3.9 Fold; Fold Up- or Down-Regulation JUN (gene JUN, 20 ug/mL): 3.3 Fold; Fold Up- or Down-Regulation JUNB (gene JUNB, 20 ug/mL): 1.6 Fold; Fold Up- or Down-Regulation LTB4R (gene LTB4R, 20 ug/mL): −1.3 Fold; Fold Up- or Down-Regulation MAFF (gene MAFF, 20 ug/mL): −1.1 Fold; Fold Up- or Down-Regulation MAP1LC3B (gene MAP1LC3B, 20 ug/mL): 1.2 Fold; Fold Up- or Down-Regulation MAPK14 (gene MAPK14, 20 ug/mL): −1.7 Fold; Fold Up- or Down-Regulation MGAT1 (gene MGAT1, 20 ug/mL): −1.0 Fold; Fold Up- or Down-Regulation MGAT5 (gene MGAT5, 20 ug/mL): −1.8 Fold; Fold Up- or Down-Regulation MOGS (gene MOGS, 20 ug/mL): −2.8 Fold; Fold Up- or Down-Regulation N4BP1 (gene N4BP1, 20 ug/mL): 1.7 Fold; Fold Up- or Down-Regulation NFKBIA (gene NFKBIA, 20 ug/mL): 4.6 Fold; Fold Up- or Down-Regulation PELI1 (gene PELI1, 20 ug/mL): −1.5 Fold; Fold Up- or Down-Regulation PLAUR (gene PLAUR, 20 ug/mL): 2.1 Fold; Fold Up- or Down-Regulation PPP1R15A (gene PPP1R15A, 20 ug/mL): 3.2 Fold; Fold Up- or Down-Regulation PTGFRN (gene PTGFRN, 20 ug/mL): −4.6 Fold; Fold Up- or Down-Regulation PTGS2 (gene PTGS2, 20 ug/mL): −1.1 Fold; Fold Up- or Down-Regulation PTX3 (gene PTX3, 20 ug/mL): 1.1 Fold; Fold Up- or Down-Regulation REL (gene REL, 20 ug/mL): 1.6 Fold; Fold Up- or Down-Regulation RSAD2 (gene RSAD2, 20 ug/mL): 1.9 Fold; Fold Up- or Down-Regulation SAMD9L (gene SAMD9L, 20 ug/mL): 1.3 Fold; Fold Up- or Down-Regulation SOD2 (gene SOD2, 20 ug/mL): 1.2 Fold; Fold Up- or Down-Regulation SPRR2B (gene SPRR2B, 20 ug/mL): 2.4 Fold; Fold Up- or Down-Regulation TGFB1 (gene TGFB1, 20 ug/mL): −1.9 Fold; Fold Up- or Down-Regulation TNF (gene TNF, 20 ug/mL): 16.4 Fold; Fold Up- or Down-Regulation TNFAIP3 (gene TNFAIP3, 20 ug/mL): 2.4 Fold; Fold Up- or Down-Regulation UBE2S (gene UBE2S, 20 ug/mL): 2.2 Fold; Fold Up- or Down-Regulation UBE3B (gene UBE3B, 20 ug/mL): 1.2 Fold; Fold Up- or Down-Regulation UBE4B (gene UBE4B, 20 ug/mL): 1.2 Fold; Fold Up- or Down-Regulation UBE20 (gene UBE20, 20 ug/mL): 1.8 Fold; Fold Up- or Down-Regulation VCP (gene VCP, 20 ug/mL): −2.0 Fold; Fold Up- or Down-Regulation VEGFA (gene VEGFA, 20 ug/mL): 1.5 Fold
